Measurements taken from BindingDB's records for doi:10.1021/jm401695d (Emory University, 2014).
pEC50: −log10 of the molar value.

Target: Glutamate NMDA receptor; Grin1/Grin2c (Rattus norvegicus, UniProt Q00961+P35439)
Assay: Potentiation of rat recombinant GluN1/GluN2C expressed in Xenopus laevis oocytes assessed as increase in glutamate/glycine-induced current response by two-electrode voltage clamp technique relative to control

Glutamate NMDA receptor; Grin1/Grin2c, sequence (Q00961 whole entry, other chains not shown): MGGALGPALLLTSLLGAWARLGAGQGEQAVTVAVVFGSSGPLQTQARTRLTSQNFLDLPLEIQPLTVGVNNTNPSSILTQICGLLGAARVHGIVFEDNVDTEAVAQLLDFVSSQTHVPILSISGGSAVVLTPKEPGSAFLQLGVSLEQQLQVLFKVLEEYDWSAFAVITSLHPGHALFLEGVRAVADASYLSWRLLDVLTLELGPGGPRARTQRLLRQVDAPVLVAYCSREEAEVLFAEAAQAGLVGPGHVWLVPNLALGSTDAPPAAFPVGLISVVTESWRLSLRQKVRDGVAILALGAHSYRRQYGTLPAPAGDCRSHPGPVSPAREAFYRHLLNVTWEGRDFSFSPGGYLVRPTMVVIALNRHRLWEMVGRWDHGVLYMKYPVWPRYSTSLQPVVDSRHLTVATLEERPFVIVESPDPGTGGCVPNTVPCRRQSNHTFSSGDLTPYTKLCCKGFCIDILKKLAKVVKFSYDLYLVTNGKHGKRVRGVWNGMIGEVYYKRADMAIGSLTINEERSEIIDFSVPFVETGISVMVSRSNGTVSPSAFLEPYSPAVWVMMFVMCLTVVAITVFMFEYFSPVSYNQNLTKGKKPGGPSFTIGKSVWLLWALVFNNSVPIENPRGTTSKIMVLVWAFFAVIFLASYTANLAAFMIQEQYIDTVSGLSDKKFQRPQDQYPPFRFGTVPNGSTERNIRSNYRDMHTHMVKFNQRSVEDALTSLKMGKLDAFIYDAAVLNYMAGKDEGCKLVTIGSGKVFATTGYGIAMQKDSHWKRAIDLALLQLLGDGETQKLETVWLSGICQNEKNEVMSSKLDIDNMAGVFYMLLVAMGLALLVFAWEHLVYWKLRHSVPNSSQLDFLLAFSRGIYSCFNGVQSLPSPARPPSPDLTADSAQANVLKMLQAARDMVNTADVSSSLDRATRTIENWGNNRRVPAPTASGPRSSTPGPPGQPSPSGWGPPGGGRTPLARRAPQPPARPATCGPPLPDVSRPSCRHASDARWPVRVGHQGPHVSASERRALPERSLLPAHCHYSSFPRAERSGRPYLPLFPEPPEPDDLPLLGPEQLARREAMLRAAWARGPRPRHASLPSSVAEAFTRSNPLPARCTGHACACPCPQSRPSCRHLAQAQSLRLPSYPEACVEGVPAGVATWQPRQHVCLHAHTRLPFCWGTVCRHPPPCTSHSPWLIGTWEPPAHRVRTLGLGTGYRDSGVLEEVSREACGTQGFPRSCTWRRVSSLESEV

pEC50: 4.80
SMILES: COC(=O)c1ccc(C2C(C(C)=O)=C(O)C(=O)N2CCc2c(C)[nH]c3ccccc23)cc1 (stereo unspecified)
